From PubChem BioAssay (NCI)
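48-hour exposure; five concentrations; linearly interpolated endpoints. Definition used: TGI = concentration required for complete inhibition of growth.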

Key:
Assay in all cases: DTP human tumour cell line panel, 48 h
[1] = system: LOX IMVI melanoma
[2] = system: A498 renal
[3] = system: MCF7 breast
[4] = system: SN12C renal
[5] = system: SF-539 CNS
[6] = system: 786-0 renal
[7] = system: HT29 colon
[8] = system: ACHN renal
[9] = system: KM12 colon
[10] = system: SK-MEL-5 melanoma
[11] = system: M14 melanoma
[12] = system: HOP-92 NSCLC
[13] = system: NCI-H23 lung
[14] = system: K-562 leukemia

SMILES | TGI [1] | TGI [2] | TGI [3] | TGI [4] | TGI [5] | TGI [6] | TGI [7] | TGI [8] | TGI [9] | TGI [10] | TGI [11] | TGI [12] | TGI [13] | TGI [14]
COC1=CC(=O)C2=C(C[C@@]3(C)C(=C2)C(CO)=CC[C@H]3O)C1=O | 38.9 µM | > 100 µM | 32.3 µM | 32.8 µM | 34.7 µM | 38.1 µM | > 100 µM | 33.1 µM | > 100 µM | 32.2 µM | 44.2 µM | 24.5 µM | 48.7 µM | 24 µM
O=C1O/C(=C\c2ccc(O)cc2)C(c2ccc(O)c(Cl)c2)=C1Cl | > 100 µM | > 100 µM | 47.4 µM | > 100 µM | > 100 µM | > 100 µM | > 100 µM | > 100 µM | > 100 µM | 43.2 µM | > 100 µM | 60.6 µM | 76.6 µM | > 100 µM
Cc1nnc(Sc2nc(C#N)c(C#N)nc2Sc2nnc(C)s2)s1 | 9.18 µM | 53.3 µM | 25.3 µM | 26.4 µM | > 60.1 µM | 28.6 µM | > 23.8 µM | 8.08 µM | > 72 µM | 46.2 µM | 62.9 µM | 7.65 µM | 49.8 µM | 12.6 µM
O=c1c2c(F)c(F)c(F)c(F)c2sc2nccn12 | 26.7 µM | 35.1 µM | 37.9 µM | 33.3 µM | 31.4 µM | 29.3 µM | 34.7 µM | 30 µM | 32.2 µM | 35.8 µM | 32 µM | 39.4 µM | 34.9 µM | 29.4 µM
N#Cc1c(O)c2ccccc2[nH]c1=O | > 100 µM | > 100 µM | > 100 µM | > 100 µM | > 100 µM | > 100 µM | > 100 µM | > 100 µM | > 100 µM | > 100 µM | > 100 µM | > 100 µM | > 100 µM | > 100 µM
O=C1C(S(=O)(=O)c2ccccc2)=C(CS(=O)(=O)c2ccccc2)[C@@H](OCc2ccccc2)[C@@H]1OCc1ccccc1 | 32.9 µM | 57.3 µM | > 100 µM | 76.4 µM | 40.6 µM | > 100 µM | 26.3 µM | > 100 µM | 27.4 µM | 40.2 µM | 32.1 µM | 32.7 µM | 36.3 µM | 35.8 µM
CC1C(c2ccccc2O)c2cc3c(cc2OC1N1CCOCC1)OCO3 (centres undefined) | 41.3 µM | 52.1 µM | > 100 µM | > 100 µM | 46.5 µM | > 100 µM | 68.4 µM | > 100 µM | 91.6 µM | 62.3 µM | > 100 µM | 71.1 µM | 81 µM | 90.6 µM
COC1CC(O[C@H]2CC[C@@]3(C)[C@@H](CC[C@]4(O)[C@@H]3CC[C@]3(C)[C@@H](C(C)=O)[C@H](OC(=O)CC(C)C)[C@@H](OC(=O)c5ccccc5)[C@@]34O)C2)OC(C)C1OC1CC(OC)C(OC2OC(C)C(O)C(OC)C2O)C(C)O1 (some centres undefined) | > 25 µM | > 25 µM | > 25 µM | > 25 µM | > 25 µM | > 25 µM | > 25 µM | > 25 µM | > 25 µM | > 25 µM | > 25 µM | 24.8 µM | > 25 µM | > 25 µM
CCOC(=O)C(CCc1ncnc2c1ncn2Cc1ccccc1)(CCc1ncnc2c1ncn2Cc1ccccc1)C(=O)OCC | > 100 µM | > 100 µM | > 100 µM | > 100 µM | 94.6 µM | > 100 µM | > 100 µM | > 100 µM | > 100 µM | > 100 µM | > 100 µM | > 100 µM | > 100 µM | > 100 µM
O=C1c2ccccc2C(=O)c2c(NCCCN3CCOCC3)ccc(NCCCN3CCOCC3)c21 | 3.61 µM | 25.2 µM | 24.4 µM | 17.2 µM | 4.03 µM | 16.7 µM | 12.7 µM | 19.5 µM | 20.5 µM | 6.79 µM | 10.1 µM | 15.9 µM | 17.6 µM | > 100 µM
O=C1CCCc2ccc3c(c21)CC1(Cc2ccccc2C1)C3 | > 100 µM | > 100 µM | > 100 µM | > 100 µM | > 100 µM | > 100 µM | 45 µM | 68.9 µM | > 100 µM | 33.4 µM | > 100 µM | 50.6 µM | > 100 µM | 30 µM
